Patent US11214594B2, “Antimicrobial peptide having synergistic antibacterial effect with antibiotics on multidrug resistant bacteria, and use thereof” (priority 2016, dated 2022)
In brackets after ≈: the same amount, converted by molar mass. Where a SMILES comes first, the peptide text is derived from it. [ ]: non-standard residue; d: D form.

How the values were obtained:
MDRST 8009 = format: cell-based, Salmonella typhimurium; conditions: agent alone
Method in brief: (§1)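 Each strain is brought to 2×10^6 CFU in nutrient-sufficient Mueller-Hinton medium and dispensed into wells. Peptide solutions, stepwise diluted 2:1 in the same medium, are then added. The minimal concentration preventing growth gives the MIC.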

S. epidermidis = assay: microbe, parasite or virus in culture; format: cell-based, Staphylococcus epidermidis
Method in brief: as §1

MDRAB 12036 = format: cell-based, Acinetobacter baumannii
Method in brief: as §1

MDRST 8007 = assay: Minimal inhibitory concentration (MIC), single agent; format: cell-based, Salmonella typhimurium; conditions: agent alone
Method in brief: as §1

E. coli [1] = assay: MIC of antibiotic during combined treatment with antimicrobial peptide; format: cell-based, Escherichia coli; conditions: for Antibiotic MIC, Erythromycin / Antibiotic MIC, Linezolid / Antibiotic MIC, Vancomycin: E. coli
Method in brief: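 Antibiotic diluted in MH medium, dispensed per well with peptide; setup repeated with roles reversed; MIC read per combination.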

MRSA 3126 = format: cell-based, Staphylococcus aureus; conditions: 3126
Method in brief: as §1

MRSA 3114 = format: cell-based, Staphylococcus aureus; conditions: 3114
Method in brief: as §1

MDREC 1229 = assay: microbe, parasite or virus in culture; format: cell-based, Escherichia coli
Method in brief: as §1

E. coli [2] = assay: microbe, parasite or virus in culture; format: cell-based, Escherichia coli; conditions: 16 h
Method in brief: as §1

MDRAB 12035 = assay: MIC of antibiotic during combined treatment with antimicrobial peptide; format: cell-based, Acinetobacter baumannii
Method: Specifically, the strains described in [Table 2] were prepared and diluted with an MH medium such that the number of bacteria was 2×10^6 colony-forming units (CFUs) per 1 ml, 100 μl of the diluted strains was each aliquoted into a 96-well microtiter plate, and then 50 μl of a peptide solution diluted with the MH medium from the MIC value (solution diluted stepwise at 2: 1) was added to each well. Thereafter, the MIC value of each mixed solution was determined by diluting the antibiotic solution with the MH medium, adding 50 μl of the diluted solution to each well, and performing an experiment even under a reversed condition.

[3] = peptide treatment concentration 1 μg/ml
[4] = peptide treatment concentration 2 μg/ml
[5] = peptide treatment concentration 4 μg/ml
[6] = peptide treatment concentration 6 μg/ml
[7] = peptide treatment concentration 8 μg/ml
[8] = peptide treatment concentration 16 μg/ml

CC[C@H](C)[C@H](NC(=O)[C@H](CCCCN)NC(=O)[C@H](Cc1c[nH]c2ccccc12)NC(=O)[C@@H](N)CCCNC(=N)N)C(=O)N[C@@H](Cc1ccccc1)C(=O)N[C@@H](CCCCN)C(=O)N[C@@H](CCCCN)C(=O)N[C@H](C(=O)N[C@H](CCCCN)C(=O)N[C@@H](CCCCN)C(=O)N[C@@H](CC(C)C)C(=O)N[C@@H](CC(C)C)C(=O)N[C@@H](Cc1c[nH]cn1)C(=O)N[C@@H](CCCCN)C(=O)N[C@@H](C)C(=O)N[C@@H](CCCCN)C(=O)N[C@@H](CCCCN)C(=O)N[C@@H](Cc1c[nH]c2ccccc12)C(N)=O)[C@@H](C)CC [PapMA-18, RWK IFK KIk KLL HKA KKW-NH2] (H-RWKIFKKI[dK]KLLHKAKKW-NH2; N-terminus assumed)
Minimal inhibitory concentration MIC (MDRST 8009): 64 µg/mL (≈ 26.9 µM) | Minimal inhibitory concentration MIC (S. epidermidis): >128 µg/mL | Minimal inhibitory concentration MIC (MDRAB 12036): 32 µg/mL (≈ 13.5 µM) | Minimal inhibitory concentration MIC (MDRST 8007): 64 µg/mL (≈ 26.9 µM) | Synergistic effect of antibacterial activity with existing antibiotics compared with PapMA-1 (E. coli [1]; E. coli and MDREC1229): higher level than the PapMA-1 peptide | Antibiotic MIC, Erythromycin (E. coli [1]; erythromycin combined with peptide at 1 μg/ml): 128 µg/mL | Antibiotic MIC, Erythromycin (E. coli [1]; erythromycin combined with peptide at 2 μg/ml): 32 µg/mL | Antibiotic MIC, Erythromycin (E. coli [1]; erythromycin combined with peptide at 4 μg/ml): 8 µg/mL | Antibiotic MIC, Erythromycin (E. coli [1]; erythromycin combined with peptide at 6 μg/ml): 1 µg/mL | Antibiotic MIC, Erythromycin (E. coli [1]; erythromycin combined with peptide at 8 μg/ml): 1 µg/mL | Antibiotic MIC, Erythromycin (E. coli [1]; erythromycin combined with peptide at 16 μg/ml): 0.25 µg/mL | Antibiotic MIC, Erythromycin (E. coli [1]; erythromycin combined with peptide at 32 μg/ml): 0.125 µg/mL | Antibiotic MIC, Erythromycin (E. coli [1]; erythromycin combined with peptide at 64 μg/ml): 0 µg/mL | Antibiotic MIC, Linezolid (E. coli [1]; linezolid combined with peptide at 1 μg/ml): >128 µg/mL | Antibiotic MIC, Linezolid (E. coli [1]; linezolid combined with peptide at 2 μg/ml): >128 µg/mL | Antibiotic MIC, Linezolid (E. coli [1]; linezolid combined with peptide at 4 μg/ml): 64 µg/mL | Antibiotic MIC, Linezolid (E. coli [1]; linezolid combined with peptide at 6 μg/ml): 16 µg/mL | Antibiotic MIC, Linezolid (E. coli [1]; linezolid combined with peptide at 8 μg/ml): 8 µg/mL | Antibiotic MIC, Linezolid (E. coli [1]; linezolid combined with peptide at 16 μg/ml): 8 µg/mL | Antibiotic MIC, Linezolid (E. coli [1]; linezolid combined with peptide at 32 μg/ml): 4 µg/mL | Antibiotic MIC, Linezolid (E. coli [1]; linezolid combined with peptide at 64 μg/ml): 0 µg/mL | Antibiotic MIC, Vancomycin (E. coli [1]; vancomycin combined with peptide at 1 μg/ml): >128 µg/mL | Antibiotic MIC, Vancomycin (E. coli [1]; vancomycin combined with peptide at 2 μg/ml): >128 µg/mL | Antibiotic MIC, Vancomycin (E. coli [1]; vancomycin combined with peptide at 4 μg/ml): >128 µg/mL | Antibiotic MIC, Vancomycin (E. coli [1]; vancomycin combined with peptide at 6 μg/ml): 32 µg/mL | Antibiotic MIC, Vancomycin (E. coli [1]; vancomycin combined with peptide at 8 μg/ml): 16 µg/mL | Antibiotic MIC, Vancomycin (E. coli [1]; vancomycin combined with peptide at 16 μg/ml): 8 µg/mL | Antibiotic MIC, Vancomycin (E. coli [1]; vancomycin combined with peptide at 32 μg/ml): 4 µg/mL | Antibiotic MIC, Vancomycin (E. coli [1]; vancomycin combined with peptide at 64 μg/ml): 0 µg/mL | Minimal inhibitory concentration MIC (MRSA 3126): >128 µg/mL | Minimal inhibitory concentration MIC (MRSA 3114): >128 µg/mL | Minimal inhibitory concentration MIC (MDREC 1229): 64 µg/mL (≈ 26.9 µM) | Peptide MIC, peptide alone (MDREC 1229): 64 µg/mL | Minimal inhibitory concentration MIC (E. coli [2]): 64 µg/mL (≈ 26.9 µM) | Erythromycin MIC during combined treatment with peptide (MDRAB 12035; [3]): 32 µg/mL | Linezolid MIC during combined treatment with peptide (MDRAB 12035; [3]): >128 µg/mL | Vancomycin MIC during combined treatment with peptide (MDRAB 12035; [3]): >128 µg/mL | Erythromycin MIC during combined treatment with peptide (MDRAB 12035; [4]): 32 µg/mL | Linezolid MIC during combined treatment with peptide (MDRAB 12035; [4]): >128 µg/mL | Vancomycin MIC during combined treatment with peptide (MDRAB 12035; [4]): >128 µg/mL | Erythromycin MIC during combined treatment with peptide (MDRAB 12035; [5]): 16 µg/mL | Linezolid MIC during combined treatment with peptide (MDRAB 12035; [5]): 64 µg/mL | Vancomycin MIC during combined treatment with peptide (MDRAB 12035; [5]): 128 µg/mL | Erythromycin MIC during combined treatment with peptide (MDRAB 12035; [6]): 4 µg/mL | Linezolid MIC during combined treatment with peptide (MDRAB 12035; [6]): 32 µg/mL | Vancomycin MIC during combined treatment with peptide (MDRAB 12035; [6]): 32 µg/mL | Erythromycin MIC during combined treatment with peptide (MDRAB 12035; [7]): 2 µg/mL | Linezolid MIC during combined treatment with peptide (MDRAB 12035; [7]): 16 µg/mL | Vancomycin MIC during combined treatment with peptide (MDRAB 12035; [7]): 16 µg/mL | Erythromycin MIC during combined treatment with peptide (MDRAB 12035; [8]): 0.5 µg/mL | Linezolid MIC during combined treatment with peptide (MDRAB 12035; [8]): 8 µg/mL
